Assay results taken from BindingDB's records for patent US20240190890 (Bristol-Myers Squibb, 2024).
pIC50: −log10 of the molar value.

Molecular target: MAP kinase-activated protein kinase 2 (Homo sapiens, UniProt P49137)
Assay: Not found
Experimental: Briefly, 10× stock solutions of MK2 (PV3317, from Life Technologies), 1.13X ATP (AS001A), and Sox conjugated peptide substrate, S/T3-Sox, (KZN1031) were prepared in 1× kinase reaction buffer consisting of 20 mM Tris, pH 7.5, 5 mM MgCl2, 1 mM EGTA, 5 mM β-glycerophosphate, 5% glycerol (10× stock, KB001A) and 0.2 mM DTT (DS001A). Enzyme solution (5 μL) was added to each of DMSO ([…]) or serially diluted test compounds prepared in DMSO in a Corning (#3574) 384-well, white, non-binding surface microtiter plate (Corning, NY). Kinase reactions were started with the addition of 45 μL of the ATP-peptide substrate S/T3-Sox mix and monitored every 71 seconds for 120 minutes at λex360/λem485 in a Synergy H4 plate reader from BioTek (Winooski, VT) at room temperature.

MAP kinase-activated protein kinase 2, sequence (P49137 whole entry): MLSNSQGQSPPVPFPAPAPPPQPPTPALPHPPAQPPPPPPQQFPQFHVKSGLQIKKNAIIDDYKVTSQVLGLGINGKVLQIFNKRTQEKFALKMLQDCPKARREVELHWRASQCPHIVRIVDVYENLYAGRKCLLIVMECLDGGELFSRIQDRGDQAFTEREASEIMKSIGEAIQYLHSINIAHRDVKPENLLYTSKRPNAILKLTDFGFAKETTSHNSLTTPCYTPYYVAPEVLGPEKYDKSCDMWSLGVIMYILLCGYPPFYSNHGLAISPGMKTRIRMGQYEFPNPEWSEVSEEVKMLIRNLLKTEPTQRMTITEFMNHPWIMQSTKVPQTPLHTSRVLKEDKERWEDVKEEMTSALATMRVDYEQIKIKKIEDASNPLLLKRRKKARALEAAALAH

pIC50	SMILES
6.97	CCOCc1cnc(Cl)nc1-c1ccc2c(ccc3sc4c(c32)NC[C@@H](C)NC4=O)n1 [US20240190890, Compound I-3]
8.40	C=Cc1nc(-c2ccc3c(ccc4sc5c(c43)NC[C@@H](C)NC5=O)n2)cc(N2CCN(C)CC2)n1 [US20240190890, Compound I-18]
6.24	C=Cc1cc(-c2ccc3c(ccc4sc5c(c43)NC[C@@H](C)NC5=O)n2)cc(C=C)n1 [US20240190890, Compound I-80]
8.70	C=C(CN1CCOCC1)c1cc(-c2ccc3c(ccc4sc5c(c43)NC[C@@H](C)NC5=O)n2)ncn1 [US20240190890, Compound I-139]
7.14	C=Cc1cc(-c2ccc3c(ccc4sc5c(c43)NC[C@@H](C)NC5=O)n2)cc(N2CC(C)OC(C)C2)n1 (stereo not given in full) [US20240190890, Compound I-201]
